This is an account of results in patent US20070219825A1, “METHOD OF MANAGING AND REDUCING SIDE EFFECTS ASSOCIATED WITH EXPOSURE TO A DRUG” (priority 2005, published 2007).

In one data set the test system is rat. The data set is described as follows: reproductive toxicology studies, dosing during pregnancy. It is filed as in vivo. An excerpt: (§1) As described herein, an exemplary restricted drug distribution program for the distribution of sitaxsentan sodium has been developed, in accordance with the restricted distribution methods provided above, to minimize the risk of side effects associated with exposure to sitaxsentan sodium. Sitaxsentan sodium is an endothelin receptor antagonist (ETRA) used to treat people diagnosed with pulmonary arterial hypertension (PAH). […] However, along with the many benefits, there are many risks associated with exposure to sitaxsentan sodium. For instance, ETRA's, as a class, have been associated with liver function abnormalities. […] In addition, ETRA's, as a class, have consistently produced teratogenic effects in animals. […] Although the effects of sitaxsentan sodium on human development are not known, it is likely to produce major birth defects if used by pregnant women. Sitaxsentan sodium also is contraindicated for those taking cyclosporine A (used for treatment of psoriasis and rheumatoid arthritis, and to prevent rejection of organ transplants).

Data set [1] is described as follows: placebo-controlled trials, liver aminotransferases. It is filed as in vivo, patients.
Description: as §1

For the next data set, the system named is metabolism of warfarin. The note with it: concomitant warfarin; cited from earlier work.
Data set [2] has as its system pulmonary arterial hypertension (PAH). The data set is described as follows: clinical studies in subjects with PAH. It is filed as in vivo.
Description: as §1

On to `Cc1cc2c(cc1CC(=O)c1sccc1S(=O)(=O)Nc1onc(C)c1Cl)OCO2` [sitaxsentan sodium], for which, in the data set on rat, the “reproductive toxicology: effect of dosing during pregnancy” value was “several fetal malformations”. Also, the “patients with at least a three-fold increase of liver aminotransferases (hepatoxicity)” value in data set [1] is reported as “about two”. Besides, in the data set with metabolism of warfarin, the “effect on metabolism of warfarin” value is “antagonize the metabolism of warfarin”. In addition, the “safety and efficacy in the treatment of PAH” value in data set [2] is “demonstrated safety and efficacy”.
